Here are results for 12 compounds from US20170253607A1, “LONG-ACTING HIV PROTEASE INHIBITOR” (Shionogi & Co., Ltd., priority 2014, published 2017).

SMILES strings stand for the structures. Some results are limits rather than exact numbers.

The nature of data set [1]: Protein binding test (equilibrium dialysis, unbound ratio fu in serum). Format: in vitro ADME. The note with it: rat serum, equilibrium dialysis 24 hours, 37° C., 2 μg/mL. The method in brief: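 Compound at 2 μg/mL in serum was dialysed against PBS for 24 hours at 37° C. Both sides were quantified by LC/MS/MS, and fu was taken as the PBS concentration divided by the serum concentration.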

Data set [2] can be described thus: Evaluation of total body clearance (CLtot), intravenous administration. It is filed as in vivo, Sprague-Dawley (SD). The note with it: rat (SD), intravenous administration 0.5-10 mg/kg; CLtot = dose/AUC. The method in brief:
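Plasma levels quantified by LC/MS/MS after intravenous tail-vein dosing (0.5-10 mg/kg, compound-dependent; n=2-3). AUC from pharmacokinetic analysis; total clearance calculated as dose/AUC.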

The next data set has as its target HIV-1 PR (Human immunodeficiency virus type 1 group M subtype B, UniProt P04585). Kind of data set: HIV-protease inhibitory activity assay (FRET peptide substrate). It is filed as biochemical. The conditions noted are these: Test Example 1. In outline: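 HIV-1 PR (0.83 ng) preincubated with compounds 20 min at room temperature in 0.1 mol/L NaAc, 0.5 mol/L NaCl, 1 mmol/L EDTA, 1 mmol/L DTT, 0.05% Tween 20, pH 4.8. Cleavage of HiLyte Fluor 488/QXL 520 FRET peptide (2 μmol/L) read after 60 minutes at 485/535 nm; IC50 from four-parameter logistic fit.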

As to `COc1ccc(S(=O)(=O)N(CC(C)C)CC(O)C(Cc2ccc(NCc3ccccc3-c3sc4c(c3C(=O)O)CC(C)(C)CC4(C)C)cc2)NC(=O)OC2COC3(C)OCCC23)cc1` (stereo not drawn) [Compound I-418], the rat_fu in data set [1] was less than 0.1%. The rat_CLt in data set [2] came out at 1.49 mL/min/kg. On HIV-1 PR, this compound returned an IC50 of 2.21 nM.

Turning to `COc1ccc(S(=O)(=O)N(CC(C)C)CC(O)C(Cc2ccc(N(C)C3CN(c4ccc(-c5sc6c(c5C(=O)O)CC(C)(C)CC6)cc4)C3)cc2)NC(=O)OC2COC3(C)OCCC23)cc1` (stereo not drawn) [Compound I-391], the rat_fu in data set [1] was less than 0.1%. For the same compound, the rat_CLt in data set [2] is given as 10.3 mL/min/kg. For the same compound, on HIV-1 PR, the IC50 amounted to 3.94 nM.

As to `COc1ccc(S(=O)(=O)N(CC(C)C)CC(O)C(Cc2ccc(CN3CCc4c(-c5sc6c(c5C(=O)O)CC(C)(C)CC6)cccc43)cc2)NC(=O)OC2COC3(C)OCCC23)cc1` (stereo not drawn) [Compound I-386], in data set [1], the rat_fu is listed as less than 0.1%. For the same compound, in data set [2], the rat_CLt turned out to be 4.96 mL/min/kg. This compound returned an IC50 against HIV-1 PR of 5.89 nM.

Consider `COC(=O)NC(C(=O)NC(Cc1ccc(-c2sc3c(c2C(=O)O)CC(C)(C)CC3)cc1)C(O)CC(Cc1ccccc1F)C(=O)NC1c2cc(F)cc(Cl)c2OCC1O)C(C)(C)C` (stereo not drawn) [Compound I-903], for which, in data set [1], the rat_fu was less than 0.1%. In data set [2], the rat_CLt amounted to 0.0436 mL/min/kg. The IC50 at HIV-1 PR was found to be 2.23 nM.

As to `COc1ccc(S(=O)(=O)N(CC(C)C)CC(O)C(Cc2ccc(NCc3cccc(-c4sc5c(c4C(=O)O)CC(C)(C)CC5)c3C)cc2)NC(=O)OC2COC3(C)OCCC23)cc1` (stereo not drawn) [Compound I-292], in data set [1], the rat_fu is listed as less than 0.1%. The compound also showed a rat_CLt in data set [2] of 0.166 mL/min/kg. At HIV-1 PR, this compound showed an IC50 of 2.68 nM.

`COc1ccc(S(=O)(=O)N(CC(C)C)CC(O)C(Cc2ccc(NCc3ncccc3-c3ccc(-c4sc5c(c4C(=O)O)CC(C)(C)CC5)cc3)cc2)NC(=O)OC2COC3(C)OCCC23)cc1` (stereo not drawn) [Compound I-415]: the rat_fu in data set [1] is on record as less than 0.1%. Also, in data set [2], the rat_CLt came to 0.66 mL/min/kg. For the same compound, the IC50 against HIV-1 PR turned out to be 2.55 nM.

`COc1ccc(S(=O)(=O)N(CC(C)C)C[C@@H](O)[C@H](Cc2ccc(OC(C)(C)C(=O)Nc3sc4c(c3C(=O)O)CC(C)(C)CC4)cc2)NC(=O)O[C@H]2CO[C@@]3(C)OCC[C@@H]23)cc1` [Compound I-7]: the rat_fu in data set [1] was less than 0.1%. In data set [2], this compound displayed a rat_CLt of 0.238 mL/min/kg. Also, the midpoint of inhibition on HIV-1 PR, the IC50, lay at 2.31 nM.

As to `CC1(C)CCc2sc(-c3ccccc3COc3ccc(CC(NC(=O)OC4COC5(C)OCCC45)C(O)CN(CC(F)F)S(=O)(=O)c4ccc5ncsc5c4)cc3)c(C(=O)O)c2C1` (stereo not drawn) [Compound I-147], in data set [1], the rat_fu is recorded as less than 0.1%. The compound also showed a rat_CLt in data set [2] of 1.68 mL/min/kg. This compound gave an IC50 against HIV-1 PR of 1.01 nM.

`COc1ccc(S(=O)(=O)N(CC(C)C)CC(O)C(Cc2ccc(N(C)CC3=C(c4sc5c(c4C(=O)O)CC(C)(C)CC5)CCOC3)cc2)NC(=O)OC2COC3(C)OCCC23)cc1` (stereo not drawn) [Compound I-363]: the rat_fu in data set [1] is listed as less than 0.1%. The compound further registered a rat_CLt in data set [2] of 3.39 mL/min/kg. The IC50 at HIV-1 PR was found to be 3.36 nM.

For the compound `CC(C)CN(CC(O)C(Cc1ccc(CCc2sc3c(c2C(=O)O)CC(C)(C)CC3)cc1)NC(=O)OC1COC2(C)OCCC12)S(=O)(=O)c1ccc2c(c1)OCO2` (stereo not drawn) [Compound I-106], the rat_fu in data set [1] is listed as less than 0.1%. This compound also gave a rat_CLt in data set [2] of 3.49 mL/min/kg. The compound also returned an IC50 against HIV-1 PR of 2.57 nM.

With `COc1ccc(S(=O)(=O)N(CC(C)C)CC(O)C(Cc2ccc(OCc3ccccc3-c3sc(N(C4CCCCC4)C4CCCCC4)nc3C(=O)O)cc2)NC(=O)OC2COC3(C)OCCC23)cc1` (stereo not drawn) [Compound I-74], in data set [1], the rat_fu was less than 0.1%. In data set [2], this compound showed a rat_CLt of 3.88 mL/min/kg. The compound further came in with an IC50 against HIV-1 PR of 1.71 nM.

On to `COc1ccc(S(=O)(=O)N(CC(C)C)CC(O)C(Cc2ccc(OCc3cc(N(C)C)ccc3-c3sc4c(c3C(=O)O)CC(C)(C)CC4)cc2)NC(=O)OC2COC3(C)OCCC23)cc1` (stereo not drawn) [Compound I-206], for which, in data set [1], the rat_fu is reported as less than 0.1%. This compound also had a rat_CLt in data set [2] of 0.162 mL/min/kg. Also, the IC50 on HIV-1 PR stood at 3.38 nM.
